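At the GI50, growth is halved. At the TGI there is no net growth.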
Experiments:
Test in all cases: DTP human tumour cell line panel, 384-well format
[1] = tested on: NCI-H23 lung
[2] = tested on: HS 578T breast
[3] = tested on: HT29 colon
[4] = tested on: CAKI-1 renal
[5] = tested on: HOP-92 NSCLC
[6] = tested on: BT-549 breast
[7] = tested on: HL-60(TB) leukemia
[8] = tested on: NCI/ADR-RES ovarian
[9] = tested on: MOLT-4 leukemia
[10] = tested on: MDA-MB-435 melanoma
[11] = tested on: NCI-H522 lung
[12] = tested on: SN12C renal
[13] = tested on: NCI-H322M lung
[14] = tested on: SK-OV-3 ovarian
[15] = tested on: T-47D breast
[16] = tested on: OVCAR-3 ovarian
[17] = tested on: NCI-H460 NSCLC
[18] = tested on: RPMI-8226 leukemia
[19] = tested on: OVCAR-8 ovarian
[20] = tested on: NCI-H226 lung
[21] = tested on: CCRF-CEM leukemia
[22] = tested on: U251 glioblastoma
[23] = tested on: 786-0 renal
[24] = tested on: MCF7 breast
[25] = tested on: A498 renal
[26] = tested on: MDA-MB-468 breast
[27] = tested on: OVCAR-4 ovarian
[28] = tested on: SF-539 CNS
[29] = tested on: OVCAR-5 ovarian
[30] = tested on: SW-620 colon
[31] = tested on: HCC-2998 colon
[32] = tested on: SNB-75 CNS
[33] = tested on: MDA-MB-231 breast
[34] = tested on: UO-31 renal
[35] = tested on: IGROV1 ovarian
[36] = tested on: SK-MEL-5 melanoma
[37] = tested on: K-562 leukemia
[38] = tested on: SR leukemia
[39] = tested on: PC-3 prostate
[40] = tested on: EKVX NSCLC
[41] = tested on: HOP-62 NSCLC
[42] = tested on: HCT-15 colon
[43] = tested on: A549 NSCLC
[44] = tested on: TK-10 renal
[45] = tested on: SF-295 CNS
[46] = tested on: ACHN renal
[47] = tested on: SNB-19 CNS
[48] = tested on: SF-268 CNS

Which results are given for `Cc1ncc(CCCN(C)C)cc1Nc1ncc2c(n1)-c1ccc(C(F)(F)F)cc1NC(=S)C2`?
GI50 [1]: < 10 nM; TGI [1]: < 10 nM; GI50 [2]: < 10 nM; TGI [2]: 21.5 nM; GI50 [3]: < 10 nM; TGI [3]: < 10 nM; GI50 [4]: 59.2 nM; TGI [4]: 12900 nM; GI50 [5]: < 10 nM; TGI [5]: 6280 nM; GI50 [6]: < 10 nM; TGI [6]: 37.1 nM; GI50 [7]: < 10 nM; TGI [7]: < 10 nM; GI50 [8]: 31.4 nM; TGI [8]: 179 nM; GI50 [9]: < 10 nM; TGI [9]: < 10 nM; GI50 [10]: < 10 nM; TGI [10]: < 10 nM; GI50 [11]: < 10 nM; TGI [11]: < 10 nM; GI50 [12]: 138 nM; TGI [12]: 3470 nM; GI50 [13]: 4460 nM; TGI [13]: 19800 nM; GI50 [14]: < 10 nM; TGI [14]: 1690 nM; GI50 [15]: 37.5 nM; TGI [15]: 15100 nM; GI50 [16]: < 10 nM; TGI [16]: < 10 nM; GI50 [17]: < 10 nM; TGI [17]: < 10 nM; GI50 [18]: < 10 nM; TGI [18]: < 10 nM; GI50 [19]: < 10 nM; TGI [19]: < 10 nM; GI50 [20]: 512 nM; TGI [20]: 6710 nM; GI50 [21]: < 10 nM; TGI [21]: < 10 nM; GI50 [22]: < 10 nM; TGI [22]: 11200 nM; GI50 [23]: < 10 nM; TGI [23]: 305 nM; GI50 [24]: < 10 nM; TGI [24]: 2270 nM; GI50 [25]: < 10 nM; TGI [25]: 12700 nM; GI50 [26]: < 10 nM; TGI [26]: < 10 nM; GI50 [27]: < 10 nM; TGI [27]: 13200 nM; GI50 [28]: < 10 nM; TGI [28]: 117 nM; GI50 [29]: < 10 nM; TGI [29]: 173 nM; GI50 [30]: < 10 nM; TGI [30]: 14.8 nM; GI50 [31]: < 10 nM; TGI [31]: 13.9 nM; GI50 [32]: < 10 nM; TGI [32]: 15.2 nM; GI50 [33]: < 10 nM; TGI [33]: 12200 nM; GI50 [34]: 99 nM; TGI [34]: 19800 nM; GI50 [35]: < 10 nM; TGI [35]: 16100 nM; GI50 [36]: < 10 nM; TGI [36]: 12.7 nM; GI50 [37]: < 10 nM; TGI [37]: < 10 nM; GI50 [38]: < 10 nM; TGI [38]: < 10 nM; GI50 [39]: < 10 nM; TGI [39]: 14300 nM; GI50 [40]: 11.6 nM; TGI [40]: 17800 nM; GI50 [41]: < 10 nM; TGI [41]: 37 nM; GI50 [42]: < 10 nM; TGI [42]: 35.1 nM; GI50 [43]: < 10 nM; TGI [43]: 170 nM; GI50 [44]: 1730 nM; TGI [44]: 19700 nM; GI50 [45]: < 10 nM; TGI [45]: 17.1 nM; GI50 [46]: 44.4 nM; TGI [46]: 15300 nM; GI50 [47]: < 10 nM; TGI [47]: 641 nM; GI50 [48]: < 10 nM; TGI [48]: 1990 nM
